Results on eleven compounds are retold here after publication PMC11577759, “The structure of lipopeptides impacts their antiviral activity and mode of action against SARS-CoV-2 in vitro” (Applied and Environmental Microbiology, 2024).

A short description of data set [1]: Cytotoxicity, CyQUANT XTT cell viability assay. Conditions: Chlorocebus sp. (African green monkey), Vero E6 cells, 72 h; for IC50 at 72 h: Vero E6 cells (kidney epithelial cells), XTT, mean (standard deviation), fengycin and caspofungin determined at higher concentrations in a subsequent experiment, read-out: IC50 (half maximal inhibitory concentration, cytotoxicity). Type of data set: cell-based, Chlorocebus sp. As for the experimental part: (§1) Chlorocebus sp. kidney epithelial cells (Vero E6; ATCC VERO C1008) were cultured in Dulbecco’s Modified Eagle medium (DMEM) High Glucose w/ Stable Glutamine w/ Sodium Pyruvate (VWR, USA) supplemented with 2% (vol/vol) of decomplemented fetal bovine serum (FBS, Biowest, France) and 1% (vol/vol) Penicillin-Streptomycin (VWR, USA). The cells were grown at 37°C in a humidified 5% CO2 atmosphere. Cells were routinely passaged when they reached 100% confluence and were passaged until passage 15.
(§2) The cytotoxic activity of the lipopeptides was assessed using a CyQUANT XTT Cell Viability Assay (Thermo Fisher Scientific) according to the manufacturer’s instructions. […] The cells were then incubated for 72 h at 37°C. The kit was then used following the manufacturer’s instructions, and the plates were read at 450 nm and 660 nm using a Multiskan GO Microplate Spectrophotometer (Thermo Fisher Scientific). The percentage of viable cells was calculated as (AT450 − AT660 − AB450) / (AC450 − AC660) × 100%, where AT450, AT660, AB450, AC450, and AC660 represent the absorbance of the tested well at 450 nm, of the tested well at 660 nm, of the blank (only medium) at 450 nm, of the control cells at 450 nm, and of the control cells at 660 nm, respectively. One hundred percent viability corresponds to the viability of uninfected cells. DMSO concentrations ranging from 0.5% (vol/vol) to 0.001% (vol/vol) were used as a negative control for the assay. Every sample was tested in triplicate.
Background: Tetrazolium dyes change colour on reduction, which living cells bring about.

Data set [2] has as its system SARS-CoV-2. Kind of data set: Replication / antiviral assay, viral RNA in supernatant by RT-qPCR. Type of data set: cell-based. The settings on record: for EC50 / EC50 (half maximal effective concentration): mean (standard deviation); for EC50: read-out: EC50 (half maximal effective concentration); for Viral RNA concentration per milliliter: surfactin 35, WLIP 20, caspofungin 100 µg/mL. (In general: In qPCR the cycle at which signal appears reflects the starting amount.)

Data set [3] concerns SARS-CoV-2. The settings on record: surfactin 35, WLIP 20, fengycin 50, caspofungin 100 µg/mL; 100% = untreated infected cells at 37°C.
Description: To determine the impact of lipopeptides on the fusion step, intracellular viral RNA was quantified after infection of cells with SARS-CoV-2 but before the budding step. […] The cells were pre-chilled for 15 min on ice. The cells were infected with SARS-CoV-2 (MOI of 10) in DMEM + 2% FBS and incubated for 2 h on ice with gentle agitation. The inoculum was removed, and the cells were gently washed three times with ice-cold DPBS. The positive control was inactivated to determine the basal viral RNA concentration after binding of the virus. The lipopeptides were added to room temperature DMEM + 2% (vol/vol) FBS and incubated at 37°C for 7 h. […] The cells were rinsed with DPBS, and the wells were dried. The samples were inactivated for 30 min at 70°C before quantification of the viral RNA by RT-qPCR. Every sample was tested in triplicate.
The subject of a further data set is Vero E6 cells. Kind of data set: Cytotoxicity, CyQUANT XTT cell viability assay. Type of data set: cell-based, Chlorocebus sp. The settings on record: for Cytotoxicity: concentrations up to 100 µg/mL, Vero E6, 72 h; for IC50 (half maximal inhibitory concentration, cytotoxicity): Vero E6 cells, XTT, mean (standard deviation), fengycin and caspofungin determined at higher concentrations in a subsequent experiment; for IC50 (half maximal inhibitory concentration, cytotoxicity) / Cell viability: 72 h; for Cell viability: 100 µg/mL, Vero E6. Here is the method:
as §1, §2

Data set [4] concerns SARS-CoV-2. Type of data set: cell-based. Conditions: cells pre-treated, surfactin 35, WLIP 20, fengycin 50, caspofungin 100 µg/mL.
The test system of data set [5] is SARS-CoV-2. Kind of data set: Binding inhibition: pre-treatment of SARS-CoV-2 and incubation on cells. Type of data set: cell-based. Conditions: virus pre-treated, surfactin 35, WLIP 20, fengycin 50, caspofungin 100 µg/mL.
The test system of another data set is Vero cells. Details: method as in earlier work. Conditions: ref 38 (Shekunov et al.); cited from earlier work.
Data set [6] has as its system SARS-CoV-2. Details: method as in PMID 36868316. Conditions: co-incubated with SARS-CoV-2; 12.5 µg/mL iturin A, 25 µg/mL mycosubtilin; Vero cells; cited from earlier work.
Where [7] appears, read: 100 µg/mL, 72 h pi, compared to untreated infected cells.
Where [8] appears, read: Severe acute respiratory syndrome coronavirus 2, Vero C1008, 72 h, […].
[9] abbreviates: SARS-CoV-2 MOI 0.01, Vero E6, viral RNA at 72 h pi by RT-qPCR.

Values after ≈ are worked out from the molar mass of the structure shown. “Also recorded” adds a separate entry of the source. Read-outs that look alike come from different tables or passages of the source. Positions of bridges follow the written chain, without caps; N, C: chain ends. Non-standard residues stand in square brackets, D forms with d. Residues, ends and D or L forms follow the SMILES beside them. *: point of attachment. d(aThr) = C[C@@H](O)[C@@H](N)C(=O)O; X2 = CCCCCCCCCCCC(O)CC(=O)*

Turning to `CCC(=O)CCCCC[C@@H]1NC(=O)[C@H]2CCCCN2C(=O)[C@H]([C@@H](C)CC)NC(=O)[C@H](Cc2cn(OC)c3ccccc23)NC1=O` [Apicidin], the IC50 at 72 h in data set [1] stood at 0.7 µg/mL (≈ 1.12 µM). The “Maximal RNA reduction at 100 µg/mL” value in the data set with SARS-CoV-2 [2] (setting [7]) is 3.7-log. For the same compound, the EC50 in the data set with SARS-CoV-2 [2] (Severe acute respiratory syndrome coronavirus 2, Vero C1008, SARS-CoV-2 MOI 0.01, Vero E6, viral RNA at 72 h pi by RT-qPCR) is 25.2 µg/mL (≈ 40.4 µM).
What is called viability is a read-out of living cells in per cent, often relative to untreated cells. A low value points to more harm to the cells. In the data set with SARS-CoV-2 [3], `CC[C@H](C)C[C@H](C)CCCCCCCCC(=O)N[C@H]1C[C@@H](O)[C@@H](NCCN)NC(=O)[C@@H]2[C@@H](O)CCN2C(=O)[C@H]([C@H](O)CCN)NC(=O)[C@H]([C@H](O)[C@@H](O)c2ccc(O)cc2)NC(=O)[C@@H]2C[C@@H](O)CN2C(=O)[C@H]([C@@H](C)O)NC1=O` [Caspofungin, reference compound] registered a Fusion percentage of 51.4%. The Cytotoxicity entry in the data set with Vero E6 cells is reported as “did not cause any cytotoxicity; also recorded: without any apparent cytotoxicity”. For the same compound, the IC50 at 72 h in data set [1] was found to be 129 µg/mL (≈ 118 µM). In data set [1] (surfactin 35, WLIP 20, fengycin 50, caspofungin 100 µg/mL, Vero E6 (Fig. 5)), this compound showed a viability at 72 h of 96.9%. The “Maximal RNA reduction at 100 µg/mL” value in the data set with SARS-CoV-2 [2] is reported as 3.7-log; with SARS-CoV-2 [2] (listed as caspofungin), 3.7 log. In addition, the “Viral RNA concentration per milliliter” value with SARS-CoV-2 [2] (24 h pi, serum diluted five times) is given as 7.9 × 10^2 RNA concentration per milliliter; in the data set on SARS-CoV-2 [2] (72 h pi) it was 1.8 × 10^4 RNA concentration per milliliter. In addition, the “Reduction of viral RNA concentration” value in the data set with SARS-CoV-2 [2] (72 h pi, surfactin 35, WLIP 20, fengycin 50, caspofungin 100 µg/mL, serum diluted five times, […]) was 2.1 log. For the same compound, the EC50 in the data set on SARS-CoV-2 [2] (setting [8]) amounted to 140 µg/mL (≈ 128 µM). Besides, the “Reduction in viral RNA” value in the data set with SARS-CoV-2 [2] (surfactin 35, WLIP 20, fengycin 50, caspofungin 100 µg/mL, 72 h (Fig. 5)) is 2.4 log. For the same compound, the “Binding percentage of SARS-CoV-2 to cells” value with SARS-CoV-2 [4] is 81%; in the data set on SARS-CoV-2 [5], “did not show any effect on the binding percentage”.
`CCCCCCCCCC(=O)N[C@@H](Cc1c[nH]c2ccccc12)C(=O)N[C@H](CC(N)=O)C(=O)N[C@@H](CC(=O)O)C(=O)N[C@@H]1C(=O)NCC(=O)N[C@@H](CCCN)C(=O)N[C@@H](CC(=O)O)C(=O)N[C@H](C)C(=O)N[C@@H](CC(=O)O)C(=O)NCC(=O)N[C@H](CO)C(=O)N[C@@H]([C@H](C)CC(=O)O)C(=O)N[C@@H](CC(=O)c2ccccc2N)C(=O)O[C@@H]1C` [Daptomycin, reference compound]: the Cytotoxicity entry in the data set on Vero E6 cells is “did not cause any cytotoxicity”. Besides, the IC50 at 72 h in data set [1] was > 100 µg/mL. The “Maximal RNA reduction at 100 µg/mL” value in the data set on SARS-CoV-2 [2] was 0.3-log; in the data set on SARS-CoV-2 [2] (listed as daptomycin) it was “no effect”. Besides, in the data set with SARS-CoV-2 [2] (setting [8]), the EC50 was > 100 µg/mL. Further, in the data set on Vero cells, the IC50 is on record as 0.7 µg/mL (≈ 0.432 µM).
Consider `CCCCCCCCCCCC(O)CC(=O)N[C@@H](CC(C)C)C(=O)N[C@H](CCC(=O)O)C(=O)N[C@H]1C(=O)N[C@H](C(C)C)C(=O)N[C@@H](CC(C)C)C(=O)N[C@H](CO)C(=O)N[C@@H](CC(C)C)C(=O)N[C@@H](CC(C)C)C(=O)N[C@H](CO)C(=O)N[C@@H](C(C)C)C(=O)O[C@@H]1C` (stereo partly shown) [Orfamide B] (X2-L[dE][d(aThr)][dV]L[dS]LL[dS]V; ester 3-C), for which the “IC50 (half maximal inhibitory concentration, cytotoxicity)” value in the data set with Vero E6 cells was 14.6 (0.4) µg/mL. For the same compound, the “Maximal RNA reduction at 100 µg/mL” value is reported as 6.3-log with SARS-CoV-2 [2] (setting [7]) and 6.3 log in the data set with SARS-CoV-2 [2] (100 µg/mL, 72 h pi, compared to untreated infected cells, listed as orfamide B). For the same compound, the “EC50 (half maximal effective concentration)” value in the data set with SARS-CoV-2 [2] (setting [9]) was 12.8 (4.1) µg/mL.
In the case of “Colistin (polymyxin E) [reference compound]”, the “IC50 (half maximal inhibitory concentration, cytotoxicity)” value in the data set on Vero E6 cells is recorded as >100.0 µg/mL. Moreover, the Cytotoxicity result in the data set with Vero E6 cells is reported as “did not cause any cytotoxicity”. In addition, the “Maximal RNA reduction at 100 µg/mL” value in the data set with SARS-CoV-2 [2] (setting [7]) is reported as 0.2-log; in the data set with SARS-CoV-2 [2] (100 µg/mL, 72 h pi, compared to untreated infected cells, listed as colistin), “no activity up to 100 µg/mL”. In addition, the “EC50 (half maximal effective concentration)” value in the data set with SARS-CoV-2 [2] (setting [9]) is >100.0 µg/mL.
As to Fusaricidin, the “IC50 (half maximal inhibitory concentration, cytotoxicity)” value in the data set on Vero E6 cells is given as 24.6 (1.1) µg/mL. In addition, in the data set with SARS-CoV-2 [2] (setting [7]), the “Maximal RNA reduction at 100 µg/mL” value is 3.3-log. In the data set with SARS-CoV-2 [2] (setting [9]), the “EC50 (half maximal effective concentration)” value is 51.2 (13.6) µg/mL.
In the case of Iturin A, in the data set on Vero E6 cells, the Cell viability entry is reported as “no cell viability was observed” and the “IC50 (half maximal inhibitory concentration, cytotoxicity)” value is given as 4.9 (0.5) µg/mL. In addition, the “Viral titer and SARS-CoV-2 cytopathic effects” value with SARS-CoV-2 [6] was “could reduce the viral titer and SARS-CoV-2 cytopathic effects (CPEs)”. Moreover, the “Maximal RNA reduction at 100 µg/mL” value with SARS-CoV-2 [2] (setting [7]) is 3.9-log. Moreover, the “EC50 (half maximal effective concentration)” value with SARS-CoV-2 [2] (setting [9]) is recorded as 18.2 (1.8) µg/mL.
As for Lichenysin, in the data set on Vero E6 cells, the “IC50 (half maximal inhibitory concentration, cytotoxicity)” value is 28.1 (1.4) µg/mL. In addition, the “Maximal RNA reduction at 100 µg/mL” value is reported as 6.3-log with SARS-CoV-2 [2] (setting [7]) and 6.3 log in the data set on SARS-CoV-2 [2] (100 µg/mL, 72 h pi, compared to untreated infected cells, listed as lichenysin). The “EC50 (half maximal effective concentration)” value in the data set on SARS-CoV-2 [2] (setting [9]) was 25.9 (3.2) µg/mL.
As for Mycosubtilin, in the data set on Vero E6 cells, the Cell viability result is “no cell viability was observed” and the “IC50 (half maximal inhibitory concentration, cytotoxicity)” value is recorded as 1.8 (0.1) µg/mL. The “Viral titer and SARS-CoV-2 cytopathic effects” value in the data set on SARS-CoV-2 [6] was “could reduce the viral titer and SARS-CoV-2 cytopathic effects (CPEs)”. Also, in the data set on SARS-CoV-2 [2] (setting [7]), the “Maximal RNA reduction at 100 µg/mL” value is listed as 4.1-log. Besides, the “EC50 (half maximal effective concentration)” value with SARS-CoV-2 [2] (setting [9]) is listed as 12.9 (2.0) µg/mL.
For Polymyxin B [reference compound], in the data set on Vero E6 cells, the “IC50 (half maximal inhibitory concentration, cytotoxicity)” value was >100.0 µg/mL and the Cytotoxicity entry is “did not cause any cytotoxicity”. The “Maximal RNA reduction at 100 µg/mL” value with SARS-CoV-2 [2] (setting [7]) is 0.3-log. Also, the “Maximal RNA reduction at 100 µg/mL” value with SARS-CoV-2 [2] (100 µg/mL, 72 h pi, compared to untreated infected cells, listed as polymyxin B) is “no activity up to 100 µg/mL”. The “EC50 (half maximal effective concentration)” value in the data set with SARS-CoV-2 [2] (setting [9]) was >100.0 µg/mL. The IC50 in the data set on Vero cells is reported as 1.1 µg/mL.
Turning to Pumilacidin, the “IC50 (half maximal inhibitory concentration, cytotoxicity)” value in the data set on Vero E6 cells is 36.0 (3.5) µg/mL. Besides, the “Maximal RNA reduction at 100 µg/mL” value was 6.3-log with SARS-CoV-2 [2] (setting [7]) and 6.3 log with SARS-CoV-2 [2] (100 µg/mL, 72 h pi, compared to untreated infected cells, listed as pumilacidin). The “EC50 (half maximal effective concentration)” value in the data set with SARS-CoV-2 [2] (setting [9]) was 47.8 (0.4) µg/mL.
